Reference: US4404230A, “4-Hydroxy-1,2-Benzisothiazol-3(2H)-one-1,1-dioxides and salts thereof” (priority 1980, dated 1983)

How the values were obtained:
taste testers [1] = experiment: Determination of the taste quality; assay type: in vivo
Experimental: The tests were performed in analogy to the method of DuBois, G. A. Crosby, R. A. Stephanson and R. E. Wingard Jr., J. Agric. […] The test compounds were used as aqueous solutions at a concentration which corresponds to an about 5% saccharose solution. As comparison compound saccharose was used. The tests were carried out under identical conditions. Only the characterization of the taste was evaluated, because the intensity was already determined in the preceding experiments. The following criteria were determined by each tester: Percentage sweet to percentage bitter to percentage another taste quality. Furthermore, the presence or absence of an after taste of the individual test compounds was determined. Each substance was tested twice with regard to five different determinations.

taste testers [2] = experiment: Determination of the relative sweetening power in comparison to saccharose; assay type: in vivo; details: compared with 3% aqueous solution of saccharose
Description: The relative sweetening power (often also defined as degree of sweetness) of sweetening agents in comparison with saccharose (cane sugar) varies considerably with concentration. […] Therefore, for the determination of the relative sweetening power of the test compounds a 3% aqueous solution of saccharose was always used for comparison.

taste testers [3] = experiment: Determination of the threshold concentration (sweet taste); assay type: in vivo
Experimental: Aqueous solutions having concentrations of 1:12,500, 1:25,000, 1:50,000, and 1:100,000 were prepared of test compounds A, B and C and of comparison compounds X, Y and Z, and each was evaluated at 5 taste testers according to the following scoring system: Very sweet (=3 points), medium sweet (=2 points), weakly sweet (=1 point), and not sweet (=0 point). The tests were carried out as described by H. G. Schutz and F. J. Pilgrim in Food Research 22, 206 (1957). The dilution perceptible as sweet was defined as having the concentration at which the average value of the evaluation points reached 1.0 or more.

taste testers [4] = details: prior knowledge; cited from earlier work
[5] = Batzinger et al., Science 198, 944 (1977); cited from earlier work
taste testers [6] = details: prior knowledge; cited from earlier work; remark: listed apart in the source
thrombocyte aggregation = experiment: Effect on thrombocyte aggregation induced by collagen; assay type: cell-based; details: read-out: Change in % max. aggregation rate
Experimental: The thrombocyte aggregation was measured according to Born and Cross [J. Physiol. 170, 397 (1964)] in platelet-rich plasma obtained by centrifuging citrate blood. The change in the maximum aggregation rate in % compared with a control, and the percent change in the "optical density" were the measured parameters. The aggregation was induced by collagen.

[7] = prior knowledge; cited from earlier work

Compound | After taste (taste testers [1]; 1:20, 10 determinations) | Percentage bitter (taste testers [1]; 1:20, 10 determinations) | Percentage other taste (taste testers [1]; 1:20, 10 determinations) | Percentage sweet (taste testers [1]; 1:20, 10 determinations) | Relative sweetening power (Saccharose = 1) (taste testers [2]) | Average value of evaluation points (taste testers [3]; concentration 1:25000) | Average value of evaluation points (taste testers [3]; concentration 1:50000) | Average value of evaluation points (taste testers [3]; concentration 1:100000) | purity of the taste (taste testers [1]) | After taste (taste testers [1]; 1:10000, 10 determinations) | Percentage bitter (taste testers [1]; 1:10000, 10 determinations) | Percentage other taste (taste testers [1]; 1:10000, 10 determinations) | Percentage sweet (taste testers [1]; 1:10000, 10 determinations) | taste profile compared with saccharose (taste testers [1]) | after taste and concurrent taste (taste testers [4]) | mutagenic effect [5] | sweetening power compared with saccharose (in words) (taste testers [6]) | change in maximum aggregation rate vs control at 100 µM (thrombocyte aggregation) | toxicological tests at higher dosages [7] | Average value of evaluation points (taste testers [3]; concentration 1:12500)
OC[C@H]1O[C@@](CO)(O[C@H]2O[C@H](CO)[C@@H](O)[C@H](O)[C@H]2O)[C@@H](O)[C@@H]1O [Saccharose, saccharose, reference compound] | 4 | 0% | 2% | 98% | – | – | – | – | – | – | – | – | – | – | – | – | – | – | – | –
O=C1NS(=O)(=O)c2cccc(O)c21 [Substance A, 4-hydroxy-1,2-benzisothiazol-3(2H)-one-1,1-dioxide] | – | – | – | – | 210 | 2.4 points | 1.0 points | 0.2 points | 94-96% | 3 | 2% | 4% | 94% | – | – | – | – | – | – | –
O=C1NS(=O)(=O)c2cc(O)cc(O)c21 [Substance C, 4,6-Dihydroxy-1,2-benzoisothiazol-3(2H)-one-1,1-dioxide] | – | – | – | – | 180 | 1.8 points | 1.0 points | 0.0 points | 86% | 8 | 3% | 11% | 86% | – | – | – | – | – | – | –
O=C1NS(=O)(=O)c2cc(O)ccc21 [Z, 6-hydroxy-1,2-benzisothiazol-3(2H)-one-1,1-dioxide, reference compound] | – | – | – | – | 140 | 1.4 points | 0.6 points | 0.0 points | – | 29 | 7% | 12% | 81% | not even approached | – | – | – | – | – | –
O=C1NS(=O)(=O)c2ccccc21 [Y, saccharine, reference compound] | – | – | – | – | – | 2.4 points | 1.2 points | 0.4 points | – | 80 | 21% | 7% | 72% | not even approached | metallic, bitter after taste and the bitter concurrent taste | shows a mutagenic effect | much better than that of the saccharose | – | – | –
O=C1NS(=O)(=O)c2cccc(O)c21.[Na] [sodium salt] | – | – | – | – | – | – | – | – | – | – | – | – | – | – | – | – | – | 0% | – | –
O=S(=O)(O)NC1CCCCC1 [X, cyclamate, reference compound] | – | – | – | – | 45 | 0.2 points | 0.0 points | – | – | – | – | – | – | – | – | – | much better than that of the saccharose | – | not without objection | 0.6 points
